# Counter-ions that a name gives are not always drawn. Like-named read-outs stand apart in the source and are kept apart here.
# Key:
# [1] = target: T1, Human JAK2 (Homo sapiens, UniProt O60674); assay: In-vitro kinase inhibition test, JAK2; assay type: biochemical; details: compound at 1 uM; read-out: JAK2 kinase-phosphorylation inhibitory level (% inhibition)
# T1 construct: purchased Millipore, Germany
# Description: (§1) Human-derived JAK1, JAK2, JAK3 and TYK2 (Millipore, Germany) were used as kinases. Each kinase was diluted with an appropriate buffer as described below, and then mixed with reaction reagents.
# (§2) 3-morpholinopropane-1-sulfonic acid (MOPS) and EDTA were dissolved in deionized water at a concentration of 20 mM and 1 mM, respectively, and then 100 μL of β-mercaptoethanol, 10 μL of Brij-35™, 5 mL of glycerol, and 100 mg of bovine serum albumin (BSA), each per 100 mL of the solution, were added to the solution, thereby preparing a dilution buffer for JAK2, JAK3, and TYK2.
# (§3) Each compound was dissolved in a 100%-DMSO solution at a concentration of about 50 μM. This prepared solution was reacted with reaction reagents in each well of a 96-well plate until a final concentration of the compound reached 1 μM. A detailed experimental method for each kinase is as follows.
# (§4) After reaction for about 40 minutes at room temperature, the reaction was stopped by adding 5 uL of a 3% (v/v) phosphoric acid solution.
# (§5) The inhibitory levels (% inhibition) represent a percentage of reduction in phosphorylation activity in each test group with respect to the phosphorylation activity of a corresponding kinase in a negative control group lacking any of the compounds synthesized in the examples. % inhibition=[(Scintillation value of Test compound non-treatment group−Scintillation value of Test compound treatment group)/(Scintillation value of Test compound non-treatment group)]×100
# [2] = target: T2, Human TYK2 (Homo sapiens, UniProt P29597); assay: In-vitro kinase inhibition test, TYK2; assay type: biochemical; details: read-out: TYK2 kinase-phosphorylation inhibitory level (% inhibition)
# T2 construct: purchased Millipore, Germany
# Description: as §1, §2, §3, §4, §5
# [3] = target: T3, Human JAK1 (Homo sapiens, UniProt P23458); assay: In-vitro kinase inhibition test, JAK1; assay type: biochemical; details: for inhibition at 1 µM: compound at 1 uM, read-out: JAK1 kinase-phosphorylation inhibitory level (% inhibition); for JAK1/JAK2: ratio of % inhibition of JAK1 to JAK2 at 1 uM
# T3 construct: purchased Millipore, Germany
# [4] = target: T4, Human JAK3 (Homo sapiens, UniProt P52333); assay: In-vitro kinase inhibition test, JAK3; assay type: biochemical; details: compound at 1 uM; read-out: JAK3 kinase-phosphorylation inhibitory level (% inhibition)
# T4 construct: purchased Millipore, Germany
# T4 sequence (P52333 1-1124): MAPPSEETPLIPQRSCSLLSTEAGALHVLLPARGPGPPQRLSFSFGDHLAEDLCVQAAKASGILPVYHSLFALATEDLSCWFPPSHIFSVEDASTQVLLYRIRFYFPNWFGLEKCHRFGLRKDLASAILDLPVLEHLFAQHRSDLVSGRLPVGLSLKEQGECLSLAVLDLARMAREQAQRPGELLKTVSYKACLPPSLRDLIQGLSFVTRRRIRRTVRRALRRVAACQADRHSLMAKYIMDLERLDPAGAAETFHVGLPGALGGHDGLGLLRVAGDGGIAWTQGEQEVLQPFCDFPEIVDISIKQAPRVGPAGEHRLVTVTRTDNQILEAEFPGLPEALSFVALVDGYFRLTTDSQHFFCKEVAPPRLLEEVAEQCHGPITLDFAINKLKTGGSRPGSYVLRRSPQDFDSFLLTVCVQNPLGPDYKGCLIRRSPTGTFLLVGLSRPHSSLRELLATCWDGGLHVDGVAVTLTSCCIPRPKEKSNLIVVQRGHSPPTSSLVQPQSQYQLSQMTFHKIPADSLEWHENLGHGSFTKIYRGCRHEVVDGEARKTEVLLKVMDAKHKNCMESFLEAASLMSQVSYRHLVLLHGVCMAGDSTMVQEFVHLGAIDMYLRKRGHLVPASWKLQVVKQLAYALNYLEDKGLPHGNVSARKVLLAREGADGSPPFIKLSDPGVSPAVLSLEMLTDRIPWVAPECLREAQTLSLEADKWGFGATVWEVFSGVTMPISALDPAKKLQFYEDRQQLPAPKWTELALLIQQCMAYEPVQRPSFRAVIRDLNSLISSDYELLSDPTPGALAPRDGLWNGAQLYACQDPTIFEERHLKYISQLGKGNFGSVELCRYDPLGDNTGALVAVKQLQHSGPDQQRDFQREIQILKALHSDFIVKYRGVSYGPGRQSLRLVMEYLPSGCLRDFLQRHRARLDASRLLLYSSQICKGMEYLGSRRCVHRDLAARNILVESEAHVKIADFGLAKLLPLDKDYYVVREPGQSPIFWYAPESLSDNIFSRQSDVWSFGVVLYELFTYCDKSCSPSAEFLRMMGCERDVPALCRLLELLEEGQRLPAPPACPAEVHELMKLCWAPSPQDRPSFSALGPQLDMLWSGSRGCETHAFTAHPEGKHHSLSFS
# [5] = Pharmacokinetic test, oral or intravenous administration; assay type: in vivo; details: mouse, blood, 20 mg/kg, mice
# Description: A dose of the compound was about 20 mg/kg, which was orally or intraveneously administered one time, followed by blood collection from the jugular veins of three mice at each of blood sampling intervals, i.e., 0, 0.25 (15 min), 0.5 (30 min), 1, 2, 4, 6, 12, and 24 hours from the administration, and measuring a drug concentration.
# [6] = comparative drug (EMA), cited from earlier work
# T3 sequence (P23458 whole entry): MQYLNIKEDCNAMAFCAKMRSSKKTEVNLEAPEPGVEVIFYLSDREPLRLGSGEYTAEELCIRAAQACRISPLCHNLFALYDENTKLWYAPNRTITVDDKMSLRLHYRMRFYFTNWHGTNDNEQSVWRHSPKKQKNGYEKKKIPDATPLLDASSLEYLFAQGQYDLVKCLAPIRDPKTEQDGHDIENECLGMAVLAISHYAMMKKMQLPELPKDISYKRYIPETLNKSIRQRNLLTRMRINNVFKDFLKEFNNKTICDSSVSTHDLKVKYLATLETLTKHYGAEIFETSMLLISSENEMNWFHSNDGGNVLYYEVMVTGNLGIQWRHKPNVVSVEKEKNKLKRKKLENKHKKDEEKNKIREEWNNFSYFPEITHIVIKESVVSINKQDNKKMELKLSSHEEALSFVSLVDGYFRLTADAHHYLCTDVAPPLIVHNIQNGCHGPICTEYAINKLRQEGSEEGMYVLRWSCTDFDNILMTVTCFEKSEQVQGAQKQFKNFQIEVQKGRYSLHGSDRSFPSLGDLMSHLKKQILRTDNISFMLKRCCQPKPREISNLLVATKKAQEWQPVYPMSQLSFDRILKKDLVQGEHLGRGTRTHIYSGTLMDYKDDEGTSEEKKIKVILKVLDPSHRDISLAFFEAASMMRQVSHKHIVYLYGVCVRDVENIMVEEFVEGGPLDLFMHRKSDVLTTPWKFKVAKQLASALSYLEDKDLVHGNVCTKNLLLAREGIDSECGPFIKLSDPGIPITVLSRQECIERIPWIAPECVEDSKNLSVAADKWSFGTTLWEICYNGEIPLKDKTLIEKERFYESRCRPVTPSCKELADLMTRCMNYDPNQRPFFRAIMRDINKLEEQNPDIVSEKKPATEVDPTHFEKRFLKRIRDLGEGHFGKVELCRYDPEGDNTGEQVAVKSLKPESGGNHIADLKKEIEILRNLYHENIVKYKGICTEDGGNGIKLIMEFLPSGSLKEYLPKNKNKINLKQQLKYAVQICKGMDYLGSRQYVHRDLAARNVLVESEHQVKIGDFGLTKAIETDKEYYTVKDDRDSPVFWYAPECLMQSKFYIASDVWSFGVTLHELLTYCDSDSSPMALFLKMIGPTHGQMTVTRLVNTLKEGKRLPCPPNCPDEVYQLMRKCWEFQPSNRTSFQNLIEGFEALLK
# T1 sequence (O60674 whole entry): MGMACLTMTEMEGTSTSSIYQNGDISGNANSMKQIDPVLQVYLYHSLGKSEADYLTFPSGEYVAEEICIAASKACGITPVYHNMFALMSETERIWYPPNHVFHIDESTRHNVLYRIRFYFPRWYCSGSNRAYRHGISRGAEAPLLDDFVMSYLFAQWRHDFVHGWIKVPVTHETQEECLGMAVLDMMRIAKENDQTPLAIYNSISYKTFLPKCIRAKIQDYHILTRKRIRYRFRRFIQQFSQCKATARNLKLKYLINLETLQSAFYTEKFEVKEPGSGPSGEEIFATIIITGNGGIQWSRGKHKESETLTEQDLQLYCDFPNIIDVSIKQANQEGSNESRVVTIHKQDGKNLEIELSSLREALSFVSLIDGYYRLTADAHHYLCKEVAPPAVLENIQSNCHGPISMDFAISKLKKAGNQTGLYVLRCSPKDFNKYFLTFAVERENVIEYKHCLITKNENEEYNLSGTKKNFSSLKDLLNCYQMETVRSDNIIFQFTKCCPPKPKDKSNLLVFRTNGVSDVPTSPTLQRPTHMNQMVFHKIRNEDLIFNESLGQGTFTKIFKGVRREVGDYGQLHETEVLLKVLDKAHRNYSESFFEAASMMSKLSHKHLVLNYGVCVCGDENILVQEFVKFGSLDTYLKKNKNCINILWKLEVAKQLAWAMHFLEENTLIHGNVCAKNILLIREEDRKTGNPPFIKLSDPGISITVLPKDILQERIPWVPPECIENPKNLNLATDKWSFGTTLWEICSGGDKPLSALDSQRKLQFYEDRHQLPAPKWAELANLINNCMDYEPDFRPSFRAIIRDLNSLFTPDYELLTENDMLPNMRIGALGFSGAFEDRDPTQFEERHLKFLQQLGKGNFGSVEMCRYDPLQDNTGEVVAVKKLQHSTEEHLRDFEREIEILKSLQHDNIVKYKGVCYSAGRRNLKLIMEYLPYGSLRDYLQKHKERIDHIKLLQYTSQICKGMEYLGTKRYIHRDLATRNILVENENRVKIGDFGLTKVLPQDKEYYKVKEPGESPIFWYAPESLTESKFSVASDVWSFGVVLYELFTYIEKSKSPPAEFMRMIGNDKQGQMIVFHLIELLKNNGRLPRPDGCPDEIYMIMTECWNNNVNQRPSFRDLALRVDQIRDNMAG
# T2 sequence (P29597 whole entry): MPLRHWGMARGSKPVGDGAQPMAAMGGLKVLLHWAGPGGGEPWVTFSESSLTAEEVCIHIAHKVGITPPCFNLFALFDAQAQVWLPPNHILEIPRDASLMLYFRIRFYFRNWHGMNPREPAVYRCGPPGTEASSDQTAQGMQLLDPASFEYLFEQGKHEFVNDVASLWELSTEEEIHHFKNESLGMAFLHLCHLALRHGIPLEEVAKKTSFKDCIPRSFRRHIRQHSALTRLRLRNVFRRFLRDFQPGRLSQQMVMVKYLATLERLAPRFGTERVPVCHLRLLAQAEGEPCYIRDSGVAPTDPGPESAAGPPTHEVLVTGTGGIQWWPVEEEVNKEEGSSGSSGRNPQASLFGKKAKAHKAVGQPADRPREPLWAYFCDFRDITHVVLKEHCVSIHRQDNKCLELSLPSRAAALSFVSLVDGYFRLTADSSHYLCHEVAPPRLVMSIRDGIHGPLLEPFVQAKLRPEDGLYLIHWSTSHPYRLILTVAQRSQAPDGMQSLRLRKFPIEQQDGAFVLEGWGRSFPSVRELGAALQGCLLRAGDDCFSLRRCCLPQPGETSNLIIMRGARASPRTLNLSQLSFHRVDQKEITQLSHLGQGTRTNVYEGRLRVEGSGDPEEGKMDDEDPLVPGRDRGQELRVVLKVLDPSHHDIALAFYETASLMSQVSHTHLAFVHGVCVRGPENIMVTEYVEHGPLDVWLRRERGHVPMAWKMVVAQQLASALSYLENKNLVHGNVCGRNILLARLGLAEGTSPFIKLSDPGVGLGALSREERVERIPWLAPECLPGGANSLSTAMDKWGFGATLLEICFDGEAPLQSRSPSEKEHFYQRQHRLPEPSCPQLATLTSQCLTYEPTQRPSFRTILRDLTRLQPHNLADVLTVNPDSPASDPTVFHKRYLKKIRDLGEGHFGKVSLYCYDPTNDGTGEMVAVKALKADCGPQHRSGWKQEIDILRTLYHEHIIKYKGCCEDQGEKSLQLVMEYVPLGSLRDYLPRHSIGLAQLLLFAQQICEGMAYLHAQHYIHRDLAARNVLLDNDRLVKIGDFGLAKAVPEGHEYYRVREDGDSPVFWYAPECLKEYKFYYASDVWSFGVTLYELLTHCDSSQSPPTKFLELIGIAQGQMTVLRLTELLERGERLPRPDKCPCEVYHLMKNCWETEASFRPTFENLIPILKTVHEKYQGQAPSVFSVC
Structure (SMILES),inhibition at 1 µM [1] [%],inhibition at 1 µM ([2]; compound at 1 uM) [%],inhibition at 1 µM [3] [%],JAK1/JAK2 [3],inhibition at 1 µM [4] [%],other results
"C[C@@H]1CCN(S(=O)(=O)c2cccc(C#N)c2)C[C@@H]1N(C)c1ncnc2[nH]ccc12 [Example 42, 3-(((3R,4R)-4-methyl-3-(methyl(7H-pyrrolo[2,3-d]pyrimidine-4-yl)amino)piperidine-1-yl)sulfonyl)benzonitrile]",79,86,95,1.20,89,–
"CN(c1ncnc2[nH]ccc12)[C@H]1CN(C(=O)CC#N)CC1(C)C [Example 43, (R)-3-(3,3-dimethyl-4-(methyl(7H-pyrrolo[2,3-d]pyrimidine-4-yl)amino)pyrrolidine-1-yl)-3-oxopropanenitrile]",19,38,86,4.53,36,–
"CN(c1ncnc2[nH]ccc12)[C@@H]1CN(C(=O)CC#N)CC1(C)C [Example 44, (S)-3-(3,3-dimethyl-4-(methyl(7H-pyrrolo[2,3-d]pyrimidine-4-yl)amino)pyrrolidine-1-yl)-3-oxopropanenitrile]",-8,-1,26,∞,1,–
"N#CCC(=O)N1CCC(Oc2ncnc3[nH]ccc23)CC1 [Example 45, 3-(4-((7H-pyrrolo[2,3-d]pyrimidine-4-yl)oxy)piperidine-1-yl)-3-oxopropanenitrile]",5,10,35,7.00,14,–
"N#CCC(=O)N1CCCC(COc2ncnc3[nH]ccc23)C1 (stereo not shown) [Example 47, 3-(3-(((7H-pyrrolo[2,3-d]pyrimidine-4-yl)oxy)methyl)piperidine-1-yl)-3-oxopropanenitrile]",10,20,30,3.00,16,–
"N#Cc1cccc(S(=O)(=O)N2CCCC(COc3ncnc4[nH]ccc34)C2)c1 (stereo not shown) [Example 48, 3-((3-(((7H-pyrrolo[2,3-d]pyrimidine-4-yl)oxy)methyl)piperidine-1-yl)sulfonyl)benzonitrile]",17,7,25,1.47,19,–
"N#CCC(=O)N1C[C@H]2CCCN(c3ncnc4[nH]ccc34)[C@H]2C1 [Example 49, 3-((4aR,7aR)-1-(7H-pyrrolo[2,3-d]pyrimidine-4-yl)octahydro-6H-pyrrolo[3,4-b]pyridine-6-yl)-3-oxopropanenitrile]",-7,21,54,∞,1,–
"N#CCC(=O)N1C[C@@H]2CCCN(c3ncnc4[nH]ccc34)[C@@H]2C1 [Example 50, 3-((4aS,7aS)-1-(7H-pyrrolo[2,3-d]pyrimidine-4-yl)octahydro-6H-pyrrolo[3,4-b]pyridine-6-yl)-3-oxopropanenitrile]",-10,6,14,∞,1,–
"CN(c1ncnc2[nH]ccc12)[C@@H]1CCN(C(=O)CC#N)C1.Cl [Example 51, (R)-3-(3-(methyl(7H-pyrrolo[2,3-d]pyrimidine-4-yl)amino)pyrrolidine-1-yl)-3-oxopropanenitrile hydrochloride]",–,–,–,–,–,AUC(0-t) ([5]; intravenous injection): 18900 ng·h/mL; Cmax ([5]; intravenous injection): 15500 ng/mL; half-life ([5]; intravenous injection): 1.97 h; AUC(0-t) ([5]; oral administration): 13100 ng·h/mL; Cmax ([5]; oral administration): 4530 ng/mL; Tmax ([5]; oral administration): 0.5 h; bioavailability ([5]; oral administration): 69.1%; half-life ([5]; oral administration): 2.78 h
"CC1CCN(C(=O)CC#N)CC1N(C)c1ncnc2[nH]ccc12 (stereo not shown) [tofacitinib citrate, 3-{4-methyl-3-[methyl-(7H-pyrrolo[2,3-d]pyrimidine-4-yl)-amino]-piperidine-1-yl}-3-oxo-propionitrile]",–,–,–,–,–,"inhibition at 1 µM [2]: 100%; AUC0→t ([6]; intravenous injection, 5 mg/kg): 3180 ng·h/mL; t1/2 ([6]; intravenous injection, 5 mg/kg): 2.8 h; AUC0→t ([6]; oral administration, 10 mg/kg): 2750 ng·h/mL; Cmax ([6]; oral administration, 10 mg/kg): 2400 ng/mL; bioavailability ([6]; oral administration, 10 mg/kg): 43.3%; t1/2 ([6]; oral administration, 10 mg/kg): 2.0 h"

# — patent US10407430B2, “Janus kinase 1 selective inhibitor and pharmaceutical use thereof” (YANG JI CHEMICAL CO., LTD., priority 2015, dated 2019)
